Reference: patent US20260231945A1, “NEMATICIDAL COMPOUNDS, THEIR COMPOSITION AND USE THEREOF” (priority 2023, published 2026)

How the values were obtained:
[1] = Stability studies: storage at room temperature and under accelerated storage condition (ATS), purity estimated by HPLC; assay type: physicochemical; conditions: properly packed material; for purity estimated by HPLC, Day 14 Condition 54° C. ± 2° C. / purity estimated by HPLC, Day Zero Condition 54° C. ± 2° C.: 54° C. ± 2° C. (accelerated storage)
Description: The properly packed material was subjected to the conditions mentioned in the table below (Table 5).

[2] = tested on: Root-knot nematodes Meloidogyne spp. juveniles (J2); experiment: whole plant or invertebrate; assay type: in vivo; conditions: 70-100 J2 juveniles, 22±2° C., 70±5% RH, dead/inactive counted at 24, 48, 72 and 96 hours (time of rating not stated); for % Mortality Rating: 500 ppm; for mortality at 500 ppm: Meloidogyne
Method: The compound to be tested (4 mg) was dissolved in 40 μl of DMSO to make 100,000 PPM concentration stock solution. […] The nematode suspension (250 μl) having 70-100 juveniles (J2) of Root-knot nematodes Meloidogyne spp. pipetted out to each cell of 24 well bioassay plate. Sterile water (1 ml) was pipetted out in fresh 2.5 ml Eppendorf micro-centrifuge tubes. The desired concentration (500 ppm) of the compound was prepared by adding stock solution in 2.5 ml Eppendorf micro-centrifuge tubes. For each treatment 4 replications were maintained. The bioassay plates were incubated at 22±2° C. and 70±5% RH in humidity chambers.

## N#Cc1ccc(C=CC=NC(CCCNC(=N)N)C(=O)O)c(C(F)(F)F)c1 (centres unmarked) [Example 39]
[1]
  purity estimated by HPLC, Day 14 Condition 25° C. ± 2° C.: 99.55
  purity estimated by HPLC, Day 14 Condition 54° C. ± 2° C.: 99.60
  purity estimated by HPLC, Day Zero Condition 25° C. ± 2° C.: 99.40
  purity estimated by HPLC, Day Zero Condition 54° C. ± 2° C.: 99.40
[2]
  % Mortality Rating: A (70-100)

## N=C(N)NCCC[C@H](/N=C/C=C/c1nc2ccccc2s1)C(=O)O [Example 22, (E)-N^2-[(2E)-3-(1,3-benzothiazol-2-yl)prop-2-en-1-ylidene]-L-arginine]
[2]
  mortality at 500 ppm: 70 to 100%

## Cc1ccc(/C=C/C=N/[C@@H](CCCNC(=N)N)C(=O)O)cc1 [Example 25, (E)-N^2-[(2E)-3-(4-methylphenyl)prop-2-en-1-ylidene]-L-arginine]
[2]
  mortality at 500 ppm: 70 to 100%

## N=C(N)NCCCC(N=CC=Cc1ccc2ccoc2c1)C(=O)O (centres unmarked) [Example 62]
[2]
  % Mortality Rating: B (50-69)

## N=C(N)NCCCC(N=CC=Cc1ccncc1)C(=O)O (centres unmarked) [Example 42]
[2]
  % Mortality Rating: A (70-100)

## N=C(N)NCCCC(N=CC=Cc1nc2ccccc2[nH]1)C(=O)O (centres unmarked) [Example 55]
[2]
  % Mortality Rating: C (0 to 49)

## N=C(N)NCCCC(N=CC=Cc1ncco1)C(=O)O (centres unmarked) [Example 53]
[2]
  % Mortality Rating: C (0 to 49)

## N=C(N)NCCCC(N=CC=Cc1ccc2c[nH]cc2c1Cl)C(=O)O (centres unmarked) [Example 60]
[2]
  % Mortality Rating: B (50-69)

## N=C(N)NCCC[C@H](/N=C/C=C/c1ccco1)C(=O)O [Example 14, (E)-N^2-[(2E)-3-(furan-2-yl)prop-2-en-1-ylidene]-L-arginine]
[2]
  mortality at 500 ppm: 70 to 100%

## N=C(N)NCCC[C@H](/N=C/C=C/c1ccccc1)C(=O)O [Example 9, (E)-N^2-[(2E)-3-phenylprop-2-en-1-ylidene]-L-arginine]
[1]
  purity estimated by HPLC, Day 14 Condition 25° C. ± 2° C.: 99.59
  purity estimated by HPLC, Day 14 Condition 54° C. ± 2° C.: 99.64
  purity estimated by HPLC, Day Zero Condition 25° C. ± 2° C.: 99.60
  purity estimated by HPLC, Day Zero Condition 54° C. ± 2° C.: 99.63
[2]
  mortality at 500 ppm: 70 to 100%

## CC(/C=N/[C@@H](CCCNC(=N)N)C(=O)O)=C\c1ccccc1 [Example 10, (E)-N^2-[(2E)-2-methyl-3-phenylprop-2-en-1-ylidene]-L-arginine]
[2]
  mortality at 500 ppm: 70 to 100%

## COc1ccc(O)c(/C=C/C=N/[C@@H](CCCNC(=N)N)C(=O)O)c1 [Example 5, (E)-N^2-[(2E)-3-(2-hydroxy-5-methoxyphenyl)prop-2-en-1-ylidene]-L-arginine]
[2]
  mortality at 500 ppm: 50 to 69%

## N#Cc1ccc(/C=C/C=N/[C@@H](CCCNC(=N)N)C(=O)O)cc1 [Example 20, (E)-N^2-[(2E)-3-(4-cyanophenyl)prop-2-en-1-ylidene]-L-arginine]
[1]
  purity estimated by HPLC, Day 14 Condition 25° C. ± 2° C.: 99.50
  purity estimated by HPLC, Day 14 Condition 54° C. ± 2° C.: 98.90
  purity estimated by HPLC, Day Zero Condition 25° C. ± 2° C.: 99.55
  purity estimated by HPLC, Day Zero Condition 54° C. ± 2° C.: 99.43
[2]
  mortality at 500 ppm: 70 to 100%

## N=C(N)NCCC[C@H](/N=C/C=C/c1ccc2ccccc2c1)C(=O)O [Example 24, (E)-N^2-[(2E)-3-(naphthalen-2-yl)prop-2-en-1-ylidene]-L-arginine]
[1]
  purity estimated by HPLC, Day 14 Condition 25° C. ± 2° C.: 98.85
  purity estimated by HPLC, Day 14 Condition 54° C. ± 2° C.: 98.90
  purity estimated by HPLC, Day Zero Condition 25° C. ± 2° C.: 98.90
  purity estimated by HPLC, Day Zero Condition 54° C. ± 2° C.: 98.75
[2]
  mortality at 500 ppm: 50 to 69%

## N=C(N)NCCC[C@H](/N=C/C=C/c1c(O)cccc1F)C(=O)O [Example 3, (E)-N^2-[(2E)-3-(6-fluoro-2-hydroxyphenyl)prop-2-en-1-ylidene]-L-arginine]
[1]
  purity estimated by HPLC, Day 14 Condition 25° C. ± 2° C.: 98.80
  purity estimated by HPLC, Day 14 Condition 54° C. ± 2° C.: 98.79
  purity estimated by HPLC, Day Zero Condition 25° C. ± 2° C.: 99.23
  purity estimated by HPLC, Day Zero Condition 54° C. ± 2° C.: 99.10
[2]
  mortality at 500 ppm: 50 to 69%
